Columns and labels:
[1] = tested on: CYP24 mRNA; test: CYP24 transcriptional activation assay in U-937 cells (real time PCR); assay type: cell-based, human; conditions: six hours, normalized to GAPDH, 100 nM calcitriol set to 100%
Procedure: 1α,25(OH)2D3 1 mM reconstituted in isopropanol
• Sodium pyruvate • Non-essential amino acids • HEPES • 10% fetal bovine serum Phorbol 12-myristate 13-acetate (PMA) 24-well plate Isopropanol TRIzol® reagent (Invitrogen) Chloroform Ethanol Diethylpyrocarbonate treated dH2O Thermoscript™ RT-PCR System kit (Invitrogen) Human CYP24 TaqMan® Probe (Applied Biosystems Inc) Human GAPDH TaqMan® Probe (Applied Biosystems Inc) TaqMan® Universal Master Mix Probe (Applied Biosystems Inc) (ii) Procedure:
1. Cell Culture, Stimulation and Plating • Cultured U-937 cells in 4+RPMI media to a level of ≈80% confluence. Pelleted cells by centrifugation and resuspended to a concentration of 5×10^5 cells per 1 ml media. Treated U-937 cells with a final concentration of PMA of 20 ng/ml. To each well, of a 24-well plate, added 1 ml of cell suspension and incubated overnight at 37° C., in a humidified atmosphere containing 5% CO2, for adherence of cells to the wells.
2. Cell Treatment and TRIzol® Addition • Changed the media with 1 ml of fresh 4+RPMI media. Added 1 μl of the working solutions of 1, 10, and 100 μM of the compound being tested, in triplicate. Added 1 μl of isopropanol as a control, in triplicate. Incubated the cells for six hours at 37° C., in a humidified atmosphere containing 5% CO2, aspirated off the media and then added 1 ml of TRIzol® reagent. Transferred TRIzol® with cell lysate to a 1.7 ml microcentrifuge tube and stored at −80° C.
3. […] Determined the concentration of RNA using a spectrophotometer to measure the optical density of each sample, at a wavelength of 260 nm. […]
4. CYP24/GAPDH Real Time PCR • Determined the amount of CYP24 and GAPDH mRNA present in each sample using commercial TaqMan® probes, from Applied Biosystems Inc. (Foster City, Calif.). Detected both genes in the same 20 μl reaction, using an ABI PRISM 96-well optical reaction plate and cycle 50 times using an ABI Prism 7000 Sequence Detection System® (ABI). […]

[2] = target: T1, CYP24 (Homo sapiens, UniProt Q07973); test: CYP24 enzyme assay (V79-CYP24 cells, 3H-1α,25(OH)2D3 substrate); assay type: cell-based; conditions: substrate 20 nM, 2 hours, read-out: IC50 in the inhibition of CYP24
T1 construct: expressed in transfected cells; host or cells: V79-CYP24 cells (V79 = Chinese hamster lung fibroblasts, own knowledge; kept under hygromycin selection)
T1 sequence (Q07973 36-514): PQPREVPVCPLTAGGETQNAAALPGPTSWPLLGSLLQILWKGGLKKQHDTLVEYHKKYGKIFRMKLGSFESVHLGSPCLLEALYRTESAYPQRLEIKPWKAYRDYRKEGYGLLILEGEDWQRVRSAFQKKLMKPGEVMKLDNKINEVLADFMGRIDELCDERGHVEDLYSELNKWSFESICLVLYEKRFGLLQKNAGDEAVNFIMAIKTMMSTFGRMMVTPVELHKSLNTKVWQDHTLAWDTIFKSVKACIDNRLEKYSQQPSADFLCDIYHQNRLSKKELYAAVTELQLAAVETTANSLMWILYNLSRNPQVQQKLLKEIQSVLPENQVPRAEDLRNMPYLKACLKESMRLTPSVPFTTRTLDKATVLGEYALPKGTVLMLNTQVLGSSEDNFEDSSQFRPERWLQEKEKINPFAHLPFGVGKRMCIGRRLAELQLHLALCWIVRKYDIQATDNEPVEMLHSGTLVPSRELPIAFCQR
Procedure: (i) Material and Reagents:
Substrates (1 mM) reconstituted in isopropanol
1. Preparation of Cell Suspension • On the day of the assay, washed the monolayer of V79-CYP24 cells once with 1×PBS buffer and then trypsinized for 5 min at room temperature (approx. 22° C.). Added 1×PBS. Collected cells into tube, centrifuged cells (500×g, 5 min) and resuspended in DMEM+1% BSA media. Counted cells and adjusted density to 2 million/1 mL.
2. Cell Plating • Added 80 μl of cell suspension to appropriately labeled wells of a 96-well plate. Incubated plate for 45 minutes at 37° C. in a humidified atmosphere containing 5% CO2.
3. Compound Addition • Added 10 μl of inhibitor (10^−6 to 10^−10 M) and then after 35-40 min added 10 μl of substrate [^3H-1β]-1α,25(OH)2D3 (20 nM) for 2 hours at 37° C. in a humidified atmosphere containing 5% CO2. Both inhibitor and substrate were prepared in DMEM with 1% BSA media.
4. Lipid Extraction and Counting • Added 250 μl of methanol to stop the reaction and mixed. Added […] of dichloromethane, covered block and vortexed. Added […] of dichloromethane again, added […] of saturated KCl and vortexed. Centrifuged at 3000 rpm for 30 min. Triplicate 100 μl aliquots of aqueous fraction were mixed with 200 μl of scintillation fluid and the radioactivity was measured using a scintillation counter. All values were normalized for background. (iii) Results: • 1. […] (iv) Reference: 1. PCT Patent Application Serial No. PCT/CA03/00620

[3] = tested on: OVCAR-3 cells; test: [3H]-Thymidine proliferation assay with OVCAR-3 cells; assay type: cell-based; conditions: ovarian cancer cells, 6 days, 3H-thymidine incorporation
Procedure: 1. Preparation of Suspension • When OVCAR-3 cells were ˜50% confluent, aspirated media. Washed cells with 1×PBS. Trypsinized with trypsin-EDTA, collected cells from the tissue culture flask, centrifuged (200×g, 5 min) and resuspended in media.
2. Cell Plating. • Counted the cells and adjusted the cell density to 11.4×10^3 to provide 2000 cells in 175 μl (for 1 well). Distributed cell suspension into a 96 well plates at 175 μl (2000 cells) per well. Incubated plate for 24 h at 37° C. in a humidified atmosphere plus 5% CO2. • Substrate addition. • Added 25 μl of compound (final concentration 10^−7 M, 5×10^−8 M 10^−8 M, 5×10^−9 M, 10^−9 M, 10^−10M or 0 M) into each designated well. Incubated plates for 6 days without changing media and drugs at 37° C. in a humidified atmosphere plus 5% CO2.
3. [^3H]-Thymidine incorporation • Added ^3H-thymidine at 0.02 μCi per well and incubated at 37° C. in a humidified atmosphere plus 5% CO2 for 6 h.
4. Plate Harvesting. • Aspirated all media and washed cells with 1×PBS. Trypsinized cells for 30 min at 37° C. in a humidified atmosphere plus 5% CO2. Harvested cells onto a 96 well filter plate (Millipore) using a Tomtec Cell Harvestor, according to manufacturers instructions.
5. Scintillation Counting. • Added 25 μl of scintillation fluid per well. Counted the plate using a scintillation counter. Results: Compounds (20R)-I(a), (20R)-I(c) and (20R)-I(e) all inhibited the proliferation of OVCAR-3 cells.

[4] = Standard hypercalcemia assay (urine calcium, oral daily dosing for one week); assay type: in vivo; conditions: rat

C=C1/C(=C\C=C2/CCC[C@]3(C)C([C@H](C)C/C=C/C(=N\OC)C(F)(F)F)=CC[C@@H]23)C[C@@H](O)C[C@@H]1O [(20R)-I(a)]
CYP24 mRNA induction, activity as % of that for calcitriol at 100 nM [1]: 54%
IC50 [2]: 488 nM
Inhibition of OVCAR-3 cell proliferation [3]: inhibited

C=C1/C(=C\C=C2/CCC[C@]3(C)C([C@H](C)C/C=C/C(=N\OC)C4CC4)=CC[C@@H]23)C[C@@H](O)C[C@@H]1O [(20R)-I(c)]
CYP24 mRNA induction, activity as % of that for calcitriol at 100 nM [1]: 30%
IC50 [2]: 85.9 nM
Inhibition of OVCAR-3 cell proliferation [3]: inhibited

C=C1/C(=C\C=C2/CCC[C@]3(C)[C@@H]([C@H](C)CCCC(C)(C)O)CC[C@@H]23)C[C@@H](O)C[C@@H]1O [calcitriol, 1α,25-Dihydroxy vitamin D3]
Levels of calcium in the urine [4]: significant increase

Source: US8906888B2, “Low-calcemic 16,23-diene 25-oxime analogs of 1α,25-dihydroxy vitamin D3” (Cytochroma Inc., priority 2005, dated 2014)
